Measured values from paper PMC9650711, “Hydroxyl-Rich Hydrophilic Endocytosis-Promoting Peptide with No Positive Charge” (Journal of the American Chemical Society, 2022).

Columns and labels:
Assay type in all cases: cell-based, human
[1] = test system: RB-EPP6 uptake in U87 cells; assay: Endocytosis inhibitors treatment, RB-EPP6 uptake by flow cytometry; conditions: inhibitor 1 h, then 500 nM RB-EPP6 1 h; for inhibition of RB-EPP6 uptake: flow cytometry median intensity; for effect on RB-EPP6 uptake (cholesterol extraction / binding): flow cytometry
Method: (§1) Flow cytometry experiments
(§2) To perform flow cytometry experiments, a NovoCyte flow cytometer (NovoExpress) was used.
(§3) Quantification of fluorescence intensity was achieved using the Novoxpress software. Fifty thousand cells were analyzed for each condition. A green fluorescent dye used for DNA staining, YOYO, was included in all the flow cytometry experiments, serving as a cell live/dead indicator.
(§4) For the YOYO-only group, the cells were treated with trypsin for 5-10 min and subsequently fixed in a 1.5 mL centrifuge tube using 4% paraformaldehyde at room temperature for 15 min. Then, fixed cells were washed with PBS once and were permeabilized using 90% MeOH on ice for 15 min. For all conditions, cells were incubated with YOYO in a phenol-free medium for half an hour, and then were centrifuged to remove the YOYO solution and resuspended in a fresh phenol-free medium before performing flow cytometry.
For general incubation, 300 k U87 cells were seeded in a 35×10 mm culture dish and incubated overnight under normal culturing conditions. Stock solutions of Dye-EPPs were made in DMSO to reach a concentration of 500 μM. Fresh cell culture medium was used to dilute the stock solution to 500 nM. Cells were incubated with RB-EPPs for desired time periods, followed by a one-time wash with phenol-free fresh culture medium before measurements. […]
(§5) Endocytosis inhibitors treatment
U87 cells were incubated with different endocytosis inhibitors for 1 h. Then, the media was replaced with fresh media containing 500 nM of RB-EPP6. After 1 h, a trypsin-EDTA solution (0.05%, Sigma) was added to detach the cells. The cells were collected by centrifugation and resuspended in phenol-free media. […]
Stock solutions of trackers for mitochondria, lysosome, and ER were diluted with cell culture medium into 100 nM, 500 nM, and 4 μM, respectively. RB-EPP6 was added to each working solution at 500 nM. U87 cells were incubated with the trackers and RB-EPP6 for 1 h and then washed once before confocal imaging.

[2] = test system: RB-EPP6 uptake in U87 cells; assay: Heparin-binding assay, RB-EPP6 uptake by flow cytometry; conditions: heparin sulfate 10-200 μg/mL 30 min, then with 500 nM RB-EPP6 1 h
U87 cells [3] = assay: Resazurin assay, cell viability
Method: Time-dependent uptake experiment
U87 cells were incubated with RB-EPP6 at 500 nM for 1 h. After washing with fresh medium once, the cells were kept in the 5% CO2 incubator at 37 °C for desired time durations before […]
Temperature-dependent uptake experiment
U87 cells were kept in a 4 °C cold room for half an hour. After that, cells were incubated with RB-EPP 6 at 500 nM at 4 °C. Cells in the control group were maintained and incubated at 37 °C. After 1 h, cells were washed with fresh medium once before confocal imaging.
All the RB-EPPs were diluted in PBS to 100 μM. 700 μL of the testing peptides were added to the apical chamber of a Corning BioCoat Pre-coated PAMPA Plate. 200 μL PBS was added to the basolateral chamber. The plate was kept at 37 °C with 5% CO2 for 5 h, after which 80 μL samples were collected from each chamber for RB fluorescence intensity reading using the Synergy H1 […]
as §5
U87 cells were incubated with different endocytosis inhibitors for 1 h. Then, the media was replaced with fresh media containing 500 nM of RB-EPP6. After 1 h, a trypsin-EDTA solution (0.05%, Sigma) was added to detach the cells. […]
Resazurin was dissolved in DI water at a stock concentration of 6 mg/mL. […] The fluorescence intensity of the samples was recorded by a plate reader at 532 nm excitation and 585 nm emission wavelengths. […]

[4] = test system: RB-EPP6 uptake in U87 cells; assay: FIBCD1 competition assay with CSA, RB-EPP6 uptake by flow cytometry; conditions: 500 nM RB-EPP6 together with CSA, 1 h
Method: experiment. Poly-A selective RNA-seq libraries were prepared using the NEB NextUltra II kit (New England Biolabs) and sequenced on an Illumina NextSeq500 with 2×75 pair-end reads. The obtained sequencing data was preprocessed using fastp, aligned using STAR, and counted using featureCounts. Differentially expressed genes were identified using DESeq2. The sequence data and analysis reports are deposited in the GEO repository (Accession # GSE202764) […]
U87 cells were incubated with 500 nM RB-EPP6 and YOYO, together with chondroitin sulfate (CSA) in complete media. After 1 h, trypsin was used to detach the cells. Cell pellets were collected by centrifugation. Fresh phenol-free medium was added to each condition. […]
Human FIBCD1 cDNA with an MYC-DDK tag was ordered from Origene (#RC206180) and was expressed using the mammalian expression system kit ExpiCHOTM (#A29133) as generally described by MAN0014337. […] The obtained full-length FIBCD1 was quantified using BCA.
Fluorescence polarization (FP) assay
Solutions of RB-EPPs (in 1% BSA/PBST) were added to different concentrations of full-length FIBCD1 (in 1% BSA/PBST). […] The solutions were incubated at room temperature for 30 minutes on an orbital shaker, and the fluorescence polarization values were quantified using a BioTek Synergy H1 plate reader, with an FP filter set (excitation 530/25, emission 590/35). […]

U87 cells [5] = assay: Uptake and nuclear accumulation of TO- and EB-labeled EPPs, confocal; conditions: confocal imaging, TO conjugates 500 nM, EB-EPP6 2 ug/mL or 6 hr
Method: Confocal imaging experiments
To image the cells, a Zeiss 880 inverted confocal laser scanning microscope (Carl Zeiss, Germany) was used. Image acquisition and analyses were carried out using the manufacturer’s software (ZEN, Carl Zeiss). Quantification of fluorescence intensity in single cells was performed using Fiji […]
as §1, §2, §3
[…]
2 μL of RB-EPP (in DMSO) was added to the solution at a concentration of 500 μM. […] Samples were collected from both phases and quantified by Analytical HPLC separately. […]

Compound: O=C(N/N=C/c1ccc(O)c(O)c1)c1cc2ccccc2cc1O [Dynasore]
- inhibition of RB-EPP6 uptake [1]: 86%

Compound: COC[C@H]1OC(=O)c2coc3c2[C@@]1(C)C1=C(C3=O)[C@@H]2CCC(=O)[C@@]2(C)C[C@H]1OC(C)=O [wortmannin]
- inhibition of RB-EPP6 uptake [1]: 48%

Compound: heparin sulfate
- effect on RB-EPP6 uptake [2]: did not affect

Compound: chondroitin sulfate A [CSA]
- effect on cell viability (U87 cells [3]): without affecting cell viability
- effect on RB-EPP6 uptake (competitive uptake) [4]: inhibit RB-EPP6 uptake in a concentration-dependent manner

Compound: O=C1NC(=NS(=O)(=O)c2cccc3ccccc23)S/C1=C\c1ccc(Br)cc1 [Pitstop 2]
- inhibition of RB-EPP6 uptake [1]: 9%

Compound: CCCCC[C@@H](O)[C@H]1C(=O)O[C@H](C)[C@@H](O)/C=C/C=C/C=C/C=C/C=C(\C)[C@@H](O)C[C@H](O)C[C@H](O)C[C@H](O)C[C@H](O)C[C@H](O)C[C@@H]1O [filipin]
- effect on RB-EPP6 uptake (cholesterol extraction / binding) [1]: did not inhibit

Compound: C=C1[C@@H](C)[C@H]2[C@H](Cc3ccccc3)NC(=O)[C@]23[C@H](OC(C)=O)/C=C/[C@@](C)(O)C(=O)[C@@H](C)C/C=C/[C@H]3[C@@H]1O [cytochalasin D]
- inhibition of RB-EPP6 uptake [1]: 38%

Compound: methyl-β-cyclodextrin
- effect on RB-EPP6 uptake (cholesterol extraction / binding) [1]: did not inhibit

Compound: CC[n+]1c(-c2ccccc2)c2cc(N)ccc2c2ccc(N)cc21 [EB, ethidium bromide]
- uptake / intracellular localisation (U87 cells [5]): did not show any uptake

Compound: c1ccc2c(c1)Nc1ccccc1S2 [phenothiazine]
- inhibition of RB-EPP6 uptake [1]: no inhibition
